# In PMC8012331, “Drug-induced hepatic steatosis in absence of severe mitochondrial dysfunction in HepaRG cells: proof of multiple mechanism-based toxicity” (Cell Biology and Toxicology, 2020):
# Values joined by “and” are separate entries in the source; they are usually repeats but may differ in a detail not shown here. Equal values may be shown once. Read-outs that look alike come from different tables or passages of the source.
# What was measured:
# [1] = tested on: stearoyl-CoA desaturase 1 (hSCD1); test: RT-qPCR hSCD1 mRNA in HepaRG cells; assay type: cell-based, human; conditions: 4 days, vs control
# Protocol: (§1) Total RNA was extracted with the Nucleospin RNA isolation system purchased from Macherey-Nagel (Düren, Germany), which included a DNase treatment step. Quantification of isolated RNAs was assessed using a Nanodrop 1000 (Thermo Fisher Scientific, Waltham, MA). RNAs were reverse-transcribed into cDNAs using the High-Capacity cDNA Reverse Transcription Kit purchased from Applied Biosystems (Woolston, UK). Gene expression was assessed by real-time quantitative PCR analysis (RT-qPCR) using SYBR Green PCR Master Mix (Applied Biosystems) and a 384-well QuantStudio™ 7 Flex Real-Time PCR System (Thermo Fisher Scientific). Sequences of the primers used to measure gene expression are presented in Supplementary Table 3. Expression of GAPDH was chosen as reference and the 2^−ΔΔCt calculation method was used to express the relative expression of each selected gene.
# [2] = tested on: de novo lipogenesis (DNL); test: DNL from [2-14C]acetic acid in HepaRG cells; assay type: cell-based, human; conditions: 4 days, vs control
# Protocol: (§2) Experiments were carried out on passages 9 to 16. […] DPEN was dissolved in water.
# DNL was assessed by measuring newly synthesized radiolabeled lipids from [2-^14C]acetic acid, using a protocol adapted from Byrne et al. ([2014]). Briefly, culture medium was removed and cells were washed with warm PBS. Next, cells were incubated for 3 h with phenol red-free William’s E medium containing 1% fatty acid-free BSA, [2-^14C]acetic acid (1850 Bq per well, corresponding to 19.4 pM) and 50 μM cold acetic acid. Medium was then gently removed and cells were washed with warm PBS before adding a mix of hexane/isopropanol (3:2; v/v). Cell culture plates were sealed and incubated for 1 h at room temperature for lipid extraction. After transfer of the plate content in 200-μL microtubes, hexane and PBS were added to have a hexane/isopropanol/PBS ratio of 6:2:3 (v/v/v). Microtubes were then centrifuged at 1000×g for 5 min and radiolabeled lipids were counted in the upper phase with a Tri-Carb 4910TR liquid scintillation counter (PerkinElmer). Results were normalized to total protein content and expressed in comparison to control cells.
# ATP citrate lyase (ACLY) = test: RT-qPCR ACLY mRNA in HepaRG cells; assay type: cell-based, human; conditions: 4 days, vs control
# Protocol: as §1
# HepaRG cells [3] = test: Neutral lipids with Nile red in HepaRG cells; conditions: 4 days, selected concentrations (ATP loss < 30%, not above 100 × Cmax), vs control
# Protocol: (§3) Briefly, HepaRG cells were seeded in 96-well plates at a density of 2.6 × 10^4 cells/cm^2 and were first incubated in William’s E medium supplemented with 10% FBS (50% FBS from Eurobio and 50% FBS from GE Healthcare), 100 U/mL penicillin, 100 μg/mL streptomycin, 2 mM glutamine, 5 μg/mL insulin, and 50 μM hydrocortisone hemisuccinate. […] During this 1-month period, the culture medium was renewed three times a week. […] HepaRG cells were next cultured in the same FBS/DMSO conditions and incubated for 4 days with each drug at different concentrations. Culture medium was renewed every day and all investigations were performed after 96 h (i.e., 24 h after the fourth treatment). These investigations were mostly performed in 96-well plates except for western blot analysis, for which 6-well plates were used. Experiments were carried out on passages 9 to 16. All drugs (except DPEN), etomoxir, lomitapide, tunicamycin, thapsigargin, and TUDCA were dissolved in DMSO. DPEN was dissolved in water.
# (§4) Cells were then incubated with PBS containing 0.1 μg/mL Nile red for 30 min and washed once. […] For each well, four pictures were taken at a magnification of × 20 and analyzed with Columbus software (PerkinElmer) for quantification. These pictures were always taken in four different areas around the center of each well, and these areas were the same from one well to another, as programmed by the Columbus software. This software was also designed to count only living cells after exclusion of dying cells harboring nuclei with abnormal shape or altered Hoechst intensity. […] Neutral lipids were then normalized per number of nuclei and expressed relative to control cells. Examples of images used for neutral lipid quantification are shown in Supplementary Fig. 2.
# apoC3 secretion = test: apoC3 level in culture medium (HTRF), HepaRG cells; assay type: cell-based, human; conditions: 4 days; for Effect on apoC3 secretion: culture medium, vs control
# Protocol: as §3
# Apolipoprotein C3 (apoC3) level was measured using the Human Apolipoprotein C3 kit from Cisbio Bioassays (Codolet, France), according to the manufacturer’s instructions. Briefly, 10 μL of supernatants was incubated with two different specific anti-human apoC3 antibodies, one donor and one acceptor. The detection principle of apoC3 is based on HTRF® (Homogeneous Time Resolved Fluorescence), a time-resolved FRET (Förster Resonance Energy Transfer) technology. After 2 h of incubation, light emission was measured with the Infinite F Nano+ microplate reader (Tecan, Männedorf, Switzerland). ApoC3 level was calculated utilizing standard curve, based on the ratio of A665 nm/A615 nm, and normalized to the total cellular protein content. Results were expressed in comparison to control cells.
# [4] = tested on: fatty acid synthase (FASN); test: RT-qPCR FASN mRNA in HepaRG cells; assay type: cell-based, human; conditions: 4 days, vs control
# Protocol: as §1
# HepaRG cells [5] = test: Cellular ATP level (CellTiter-Glo) in HepaRG cells; assay type: cell-based, human; conditions: 4 days, vs controls
# Protocol: Cellular ATP level was measured using the CellTiter-Glo® Luminescent Cell Viability assay purchased from Promega (Charbonnières, France), according to the manufacturer’s instructions. Briefly, control and treated HepaRG cells were first washed with warm PBS and kept for 30 min at room temperature in phenol red-free William’s E medium. Cells were next incubated with the CellTiter-Glo® reagent for 10 min at room temperature. Cells were then transferred in opaque-walled multiwell plates and the luminescent signal was quantified using a POLARstar Omega microplate reader (BMG Labtech, Ortenberg, Germany). Results were expressed in comparison to control cells.
# ERN1 (IRE1α) = test: RT-qPCR ERN1 mRNA in HepaRG cells; assay type: cell-based, human; conditions: 4 days, vs control
# Protocol: as §1
# apoB secretion = test: apoB level in culture medium (ELISA), HepaRG cells; assay type: cell-based, human; conditions: 4 days; for Effect on apoB secretion: culture medium, vs control
# Protocol: as §2
# Twenty-four hours after the last treatment, cell supernatants were removed and stored at − 80 °C until use for apolipoprotein measurement. ApoB level was measured using the Human Apolipoprotein B ELISA^pro kit from Mabtech (Nacka Strand, Sweden), according to the manufacturer’s instructions. Briefly, 50 μL of samples were diluted 2× in Apo ELISA buffer before a 2-h incubation in the precoated strip plates provided in the kit. The plates were washed and incubated 1 h with the biotinylated monoclonal anti-human apoB (LDL-11-biotin) antibody. The plates were then washed and incubated 1 h with a streptavidin–horseradish peroxidase conjugated antibody. After another washing, 3,3′,5,5′-tetramethylbenzidine (TMB) was used as substrate for 15 min before adding a stop solution. Absorbance at 450 nm was then measured using a POLARstar Omega microplate reader (BMG Labtech, Ortenberg). ApoB level was calculated utilizing a four-parameter standard curve, and normalized to the total cellular protein content and expressed in comparison to control cells.
# [6] = treated patients, cited from earlier work
# [7] = Maximum plasma concentration (Cmax) in patients; assay type: in vivo, human
# [8] = tested on: acetyl-CoA carboxylase alpha (ACACA); test: RT-qPCR ACACA mRNA in HepaRG cells; assay type: cell-based, human; conditions: 4 days, vs control
# Protocol: as §1
# [9] = cited from earlier work; for Cmax: read-out: Maximum plasma concentration (Cmax) in patients
# [10] = tested on: mitochondrial fatty acid oxidation (mtFAO); test: mtFAO with [U-14C]palmitic acid in HepaRG cells; assay type: cell-based, human; conditions: 4 days, vs control
# Protocol: as §2
# Results were normalized to total protein content determined using the Pierce BCA assay kit from Thermo Fischer Scientific (Waltham, MA). Results were expressed in comparison to control cells.
# [11] = tested on: fatty acid translocase (FAT, also known as CD36); test: RT-qPCR FAT/CD36 mRNA in HepaRG cells; assay type: cell-based, human; conditions: 4 days
# Protocol: as §1
# [12] = tested on: apolipoprotein C3 (APOC3); test: RT-qPCR APOC3 mRNA in HepaRG cells; assay type: cell-based, human; conditions: 4 days, vs control
# Protocol: as §1
# [13] = tested on: angiopoietin-like 3 (ANGPTL3); test: RT-qPCR ANGPTL3 mRNA in HepaRG cells; assay type: cell-based, human; conditions: 4 days, vs control
# Protocol: as §1
# apolipoprotein B (APOB) = test: RT-qPCR APOB mRNA in HepaRG cells; assay type: cell-based, human; conditions: 4 days, vs control
# Protocol: as §1
# [14] = tested on: microsomal triglyceride transfer protein (MTTP); test: RT-qPCR MTTP mRNA in HepaRG cells; assay type: cell-based, human; conditions: 4 days, vs control
# Protocol: as §1
# [15] = tested on: primary human hepatocytes (PHH); test: Neutral lipids with Nile red in primary human hepatocytes; assay type: cell-based; conditions: 4 days
# Protocol: Primary human hepatocytes (PHH) were purchased from Biopredic International (Saint-Grégoire, France). Cells were seeded by the supplier in coated 96-well plates at a density of 5 × 10^4 cells/well. Upon receipt, culture medium was removed and replaced by William’s E medium supplemented as previously described for HepaRG cell differentiation, except for DMSO set at 1%. After 2–3 days, cells were treated as for HepaRG cells. For HepaRG cells and PHH, cells were always maintained in incubators at 37 °C with 5% CO2 and saturating humidity.
# as §4
# [16] = worked out from cited Cmax in patients
# [17] = high dose chemotherapy, ref Holmboe L et al., Br J Clin Pharmacol. 2012;73(1):106-14
# [18] = rheumatoid arthritis treatment, ref Hoekstra M et al., J Rheumatol. 2004;31(4):645-8
"Concentration corresponding to 100xCmax [7, 16]",SMILES,Effect on DNL [2],ACLY mRNA level (ATP citrate lyase (ACLY)),Accumulation of neutral lipids (steatosis) (HepaRG cells [3]),Effect on apoC3 secretion (apoC3 secretion),Loss of cellular ATP relative to the maximum concentration selected for the study (HepaRG cells [5]),ERN1 (IRE1α) mRNA level (ERN1 (IRE1α)),Effect on apoB secretion (apoB secretion),"Maximum plasma concentration (Cmax) in patients ([9]; patients, ref given per drug)","Cmax ([9]; patients, ref given per drug)",Effect on mtFAO [10],also measured
–,"CCCCc1oc2ccccc2c1C(=O)c1cc(I)c(OCCN(CC)CC)c(I)c1 [AMIO, amiodarone]",increased DNL,enhanced mRNA level,significant accumulation of neutral lipids,–,–,–,–,–,–,–,hSCD1 mRNA level [1]: enhanced mRNA level
3200 µM,"CC1=C(CC(=O)O)c2cc(F)ccc2/C1=C\c1ccc([S+](C)[O-])cc1 (stereo not shown) [SUL, sulindac]",increased DNL,augmented mRNA abundance,significant accumulation of neutral lipids,reduced the secretion,"1000 µM (loss of cellular ATP above 30% of the controls for higher concentrations, as shown in Supp. fig 1)",enhanced IRE1α mRNA level,reduced the secretion,≤ 11400 ng/mL,≤ 32 µM,–,"FASN mRNA level [4]: augmented mRNA abundance; Therapeutic blood (or plasma) concentration in patients ([6]; ref Schulz M et al., Crit Care 2012 ;16(4):R136, listed as Sulindac (SUL)): 1 - 5 mg/L and 2.8 - 14 µM; ACACA mRNA level [8]: augmented mRNA abundance"
–,"CN(Cc1cnc2nc(N)nc(N)c2n1)c1ccc(C(=O)N[C@@H](CCC(=O)O)C(=O)O)cc1 [METHO, methotrexate]",curb this metabolic pathway,–,significant accumulation of neutral lipids,–,"150 µM (loss of cellular ATP below 30% of the controls for this concentration, as shown in Supp. fig 1)",–,did not reduce,–,–,significantly enhance mtFAO,"Therapeutic blood (or plasma) concentration in patients ([6]; ref Schulz M et al., Crit Care 2012 ;16(4):R136, listed as Methotrexate (METHO)): 0.04 mg/L and 0.09 µM; Concentration corresponding to 100xCmax ([7]; from Cmax of high dose chemotherapy): 150000 µM; Concentration corresponding to 100xCmax ([7]; from Cmax of rheumatoid arthritis treatment): 130 µM; Maximum plasma concentration (Cmax) in patients [9, 17]: ≤ 680000 ng/mL; Cmax [9, 17]: ≤ 1500 µM; Maximum plasma concentration (Cmax) in patients [9, 18]: ≤ 594 ng/mL; Cmax [9, 18]: ≤ 1.3 µM; Increase of FAT/CD36 mRNA level ([11]; 50 μM): 60%; Increase of FAT/CD36 mRNA level ([11]; 150 μM): 55%"
640 µM,"Cc1c(C)c2c(c(C)c1O)CCC(C)(COc1ccc(CC3SC(=O)NC3=O)cc1)O2 (stereo not shown) [TRO, troglitazone]",curb this metabolic pathway,–,significant accumulation of neutral lipids,reduced the secretion,"47.5 µM (loss of cellular ATP above 30% of the controls for higher concentrations, as shown in Supp. fig 1)",enhanced IRE1α mRNA level,reduced the secretion,≤ 2830 ng/mL,≤ 6.4 µM,significantly enhance mtFAO,"APOC3 mRNA level [12]: nearly abolish the mRNA abundance; Secretion of apoC3 (apoC3 secretion; 45 and 47.5 μM): less than 10 % of the respective control; ANGPTL3 mRNA level [13]: nearly abolish the mRNA abundance; APOB mRNA level (apolipoprotein B (APOB)): nearly abolish the mRNA abundance; Secretion of apoB (apoB secretion; 45 and 47.5 μM): less than 10 % of the respective control; Therapeutic blood (or plasma) concentration in patients ([6]; ref Loi CM et al., J Clin Pharmacol 1999;39(9):920-6, Plosker GL and Faulds D. Drugs 1999;57(3):409-438, listed as Troglitazone (TRO)): 0.90 - 2.82 mg/L and 2.0 - 6.4 µM; MTTP mRNA level [14]: nearly abolish the mRNA abundance; Steatosis in PHH batches (six batches tested) [15]: induced steatosis in only one PHH batch"
